Laboratory results: the supplement of paper PMC10307832

Key:
Assay in all cases: relative viability (nuclei count vs DMSO), 5 days (fraction); higher = more cells survive
Linsitinib + Crizotinib = compound: C[C@]1(O)C[C@@H](c2nc(-c3ccc4ccc(-c5ccccc5)nc4c3)c3c(N)nccn32)C1 [Linsitinib] + C[C@@H](Oc1cc(-c2cnn(C3CCNCC3)c2)cnc1N)c1c(Cl)ccc(F)c1Cl [Crizotinib] (partner 1 µM)
Summary of the method: (§1)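 Values are medians from duplicate plates. Each reflects relative viability, defined as the nuclei count of treated wells over that of vehicle wells. Lung cancer cell lines in 1536-well plates were pin-tool dosed one day after seeding with one drug alone or with a fixed anchor-drug dose plus five library-drug doses (not always all listed) in √10 steps, then fixed, stained and imaged at 4× after 5 days.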

Ispinesib + Trametinib = compound: Cc1ccc(C(=O)N(CCCN)[C@@H](c2nc3cc(Cl)ccc3c(=O)n2Cc2ccccc2)C(C)C)cc1 [Ispinesib] + CC(=O)Nc1cccc(-n2c(=O)n(C3CC3)c(=O)c3c(Nc4ccc(I)cc4F)n(C)c(=O)c(C)c32)c1 [Trametinib] (partner 0.02 µM)
Summary of the method: as §1

Ispinesib + Pictilisib = compound: Cc1ccc(C(=O)N(CCCN)[C@@H](c2nc3cc(Cl)ccc3c(=O)n2Cc2ccccc2)C(C)C)cc1 [Ispinesib] + CS(=O)(=O)N1CCN(Cc2cc3nc(-c4cccc5[nH]ncc45)nc(N4CCOCC4)c3s2)CC1 [Pictilisib] (partner 1 µM)
Summary of the method: as §1

Ispinesib + Decitabine = compound: Cc1ccc(C(=O)N(CCCN)[C@@H](c2nc3cc(Cl)ccc3c(=O)n2Cc2ccccc2)C(C)C)cc1 [Ispinesib] + Nc1ncn([C@H]2C[C@H](O)[C@@H](CO)O2)c(=O)n1 [Decitabine] (partner 2 µM)
Summary of the method: as §1

Cell Line | relative viability (Linsitinib + Crizotinib; first compound 0.01 µM) | relative viability (Linsitinib + Crizotinib; first compound 0.03162 µM) | relative viability (Linsitinib + Crizotinib; first compound 0.1 µM) | relative viability (Linsitinib + Crizotinib; first compound 1 µM) | relative viability (Ispinesib + Trametinib; first compound 0.001 µM) | relative viability (Ispinesib + Trametinib; first compound 0.003162 µM) | relative viability (Ispinesib + Trametinib; first compound 0.01 µM) | relative viability (Ispinesib + Trametinib; first compound 0.03162 µM) | relative viability (Ispinesib + Trametinib; first compound 0.1 µM) | relative viability (Ispinesib + Pictilisib; first compound 0.001 µM) | relative viability (Ispinesib + Pictilisib; first compound 0.003162 µM) | relative viability (Ispinesib + Pictilisib; first compound 0.01 µM) | relative viability (Ispinesib + Pictilisib; first compound 0.03162 µM) | relative viability (Ispinesib + Pictilisib; first compound 0.1 µM) | relative viability (Ispinesib + Decitabine; first compound 0.001 µM) | relative viability (Ispinesib + Decitabine; first compound 0.003162 µM) | relative viability (Ispinesib + Decitabine; first compound 0.01 µM) | relative viability (Ispinesib + Decitabine; first compound 0.03162 µM) | relative viability (Ispinesib + Decitabine; first compound 0.1 µM) | relative viability (Linsitinib + Crizotinib; first compound 0.3162 µM)
SK-LU-1 | 0.805 | 0.752 | 0.859 | 0.993 | 0.506 | 0.524 | 0.458 | 0.359 | 0.356 | 0.556 | 0.65 | 0.674 | 0.301 | 0.354 | 0.605 | 0.62 | 0.608 | 0.57 | 0.361 | –
NCI-H358 | 0.661 | 0.676 | 0.588 | 0.415 | 0.126 | 0.131 | 0.128 | 0.115 | 0.106 | 0.298 | 0.359 | 0.377 | 0.227 | 0.245 | 0.187 | 0.205 | 0.213 | 0.109 | 0.139 | 0.448
NCI-H2085 | 0.956 | 0.939 | 0.999 | 0.763 | 0.498 | 0.563 | 0.58 | 0.519 | 0.472 | 0.485 | 0.406 | 0.504 | 0.43 | 0.307 | 0.487 | 0.524 | 0.581 | 0.577 | 0.556 | 0.68
NCI-H2087 | 0.763 | 1.01 | 0.836 | 0.729 | 0.153 | 0.196 | 0.212 | 0.236 | 0.0806 | 0.94 | 0.881 | 1.13 | 0.313 | 0.187 | 0.346 | 0.297 | 0.241 | 0.194 | 0.122 | 0.842
NCI-H322M | 0.912 | 0.879 | 0.961 | 0.855 | 0.529 | 0.586 | 0.449 | 0.514 | 0.467 | 0.527 | 0.489 | 0.54 | 0.44 | 0.397 | 0.744 | 0.771 | 0.697 | 0.666 | 0.559 | 0.753
NCI-H1734 | 0.592 | 0.723 | 0.719 | 0.462 | 0.685 | 0.622 | 0.684 | 0.684 | 0.429 | 0.414 | 0.476 | 0.506 | 0.34 | 0.233 | 0.538 | 0.528 | 0.591 | 0.54 | 0.391 | 0.694
EKVX | 0.895 | 0.938 | 0.99 | 0.943 | 0.321 | – | 0.361 | 0.603 | 0.218 | 0.442 | 0.423 | 0.508 | 0.543 | 0.438 | 0.366 | – | 0.337 | 0.284 | 0.218 | 0.795
NCI-H596 | 0.969 | 1.08 | 0.969 | 1.04 | 0.745 | 0.876 | 0.799 | 0.83 | 0.706 | 0.416 | 0.377 | 0.372 | 0.361 | 0.251 | 1.02 | 1.89 | 1.15 | 1.02 | 0.885 | 0.987
NCI-H1975 | 0.949 | 0.993 | 0.918 | 0.727 | 0.345 | 0.337 | 0.364 | 0.158 | 0.158 | 0.295 | 0.276 | 0.272 | 0.153 | 0.164 | 0.382 | 0.436 | 0.37 | 0.288 | 0.221 | 0.899
NCI-H2170 | 1.12 | 1.02 | 1.2 | 1.11 | 1.02 | 0.933 | 1.09 | 0.684 | 0.488 | 0.317 | 0.312 | 0.295 | 0.254 | 0.288 | 0.518 | 0.532 | 0.548 | 0.46 | 0.379 | 0.89
NCI-H1666 | 0.949 | 1.13 | 0.907 | 0.552 | 0.934 | 0.864 | 0.788 | 0.858 | 0.604 | 0.42 | 0.404 | 0.42 | 0.302 | 0.312 | 0.638 | 0.795 | 0.779 | 0.656 | 0.625 | 0.594
PC-3 [JPC-3] | 1.05 | 0.967 | 0.974 | 0.84 | 0.717 | 0.83 | 0.689 | 0.664 | 0.375 | 0.751 | 0.812 | 0.876 | 0.628 | 0.53 | 0.838 | 0.867 | 0.781 | 0.796 | 0.465 | 0.879
NCI-H1755 | 0.833 | 0.85 | 0.901 | 0.81 | 0.843 | 0.838 | 0.751 | 0.713 | 0.758 | 0.403 | 0.464 | 0.534 | 0.22 | 0.194 | 0.704 | 0.771 | 0.758 | 0.75 | 0.72 | 0.825
RERF-LC-KJ | 0.803 | 0.816 | 0.849 | 0.739 | 0.898 | 0.869 | 0.787 | 0.514 | 0.528 | 0.508 | 1.42 | 0.445 | 0.322 | 0.297 | 0.738 | 0.617 | 0.243 | 0.222 | 0.271 | 0.731
NCI-H647 | 1.08 | 1.01 | 1.14 | 0.987 | 0.536 | 0.508 | 0.434 | 0.209 | 0.133 | 0.402 | 0.504 | 0.449 | 0.104 | 0.0557 | 0.49 | 0.409 | 0.326 | 0.179 | 0.157 | –
BEN | 0.767 | 1.01 | 0.993 | 0.826 | 1.07 | 1.17 | 1.15 | 0.916 | 0.677 | 0.581 | 0.675 | 0.542 | 0.421 | 0.222 | 0.714 | 0.737 | 0.785 | 0.421 | 0.375 | 0.611
